# Results published in US6468979B1, “Erythromycin derivatives with antibiotic activity” (Zambon Group S.p.A., priority 1998, dated 2002).
# Experiments:
# S. aureus 929 = assay: In vitro antibacterial activity (MIC), broth dilution micromethod; format: cell-based, Staphylococcus aureus; conditions: erythromycin-resistant strain, MHB, 37° C., 18 hours
# Description: (§1) The minimum inhibitory concentrations (MIC), with respect to Gram-positive bacteria (erythromycin-sensitive and -resistant strains) and Gram-negative bacteria, were determined by means of the broth-scaler dilution micromethod in twin series [National Committee for Clinical Laboratory Standards, 1990; Methods for dilution antimicrobial susceptibility tests for bacteria that grow aerobically; Approved standards M7-A2-NCCLS, Villanova, Pa.], using Mueller Hinton Broth (MHB) as culture medium.
# (§2) Azithromycin [The Merck Index, XIIth Edition, No. 946) was used as reference macrolide.
# (§3) The MIC values, expressed in μg/ml, were determined after incubating the microplates at 37° C. for 18 hours, by evaluating the lowest concentration of antibiotic capable of inhibiting bacterial growth.
# S. aureus 77 = assay: as above; format: cell-based, Staphylococcus aureus; conditions: erythromycin-resistant strain, MHB, 37° C., 18 hours
# Description: as §1, §2, §3
# S. specie 916 = assay: as above; format: cell-based, Staphylococcus spp.; conditions: erythromycin-resistant (inducible) strain, MHB, 37° C., 18 hours
# Description: as §1, §2, §3
# S. epidermis 60 = assay: as above; format: cell-based, Staphylococcus spp.; conditions: erythromycin-resistant (inducible) strain, MHB, 37° C., 18 hours
# Description: as §1, §2, §3
# S. coag. Neg. 845 = assay: as above; format: cell-based, Staphylococcus spp.; conditions: erythromycin-resistant strain, MHB, 37° C., 18 hours
# Description: as §1, §2, §3
# S. haemolyticus 161 = assay: as above; format: cell-based, Staphylococcus haemolyticus; conditions: erythromycin-resistant strain, MHB, 37° C., 18 hours
# Description: as §1, §2, §3
# S. pneumoniae 1047 = assay: as above; format: cell-based, Streptococcus pneumoniae; conditions: Streptococcus pneumoniae, 1047; erythromycin-resistant strain; MHB with 5% horse serum, 37° C., 18 hours
# Description: as §1
# (§4) In the case of Streptococcus pneumoniae, the medium was supplemented with 5% horse serum.
# as §2, §3
# S. pneumoniae 1035 = assay: as above; format: cell-based, Streptococcus pneumoniae; conditions: Streptococcus pneumoniae, 1035; erythromycin-resistant strain; MHB with 5% horse serum, 37° C., 18 hours
# Description: as §1, §4, §2, §3
# S. pneumoniae 1051 = assay: as above; format: cell-based, Streptococcus pneumoniae; conditions: Streptococcus pneumoniae, 1051; erythromycin-resistant strain; MHB with 5% horse serum, 37° C., 18 hours
# Description: as §1, §4, §2, §3
# [1] = system: Streptococcus pyogenes C203; assay: In vivo therapeutic efficacy in experimental pulmonary infection in mice; conditions: CD1 mice, death observed for 7 days, probit analysis; for PD50 1 hour after infection: single oral dose 1 hour after intranasal infection; for PD50 24 hours before infection: single oral dose 24 hours before intranasal infection
# Description: The therapeutic efficacy, expressed as the 50% protective dose (PD50), of the compounds of formula (I) was evaluated in the experimental pulmonary infection induced in mice by Streptococcus pyogenes C203.
# Charles River albino mice (strain CD1) weighing 23-25 g were used, kept in groups of 6 to a cage and fed normally with a standard diet and water ad libitum.
# A suspension of Streptococcus pyogenes C203 (equal to about 10^8 CFU) in tryptone broth (0.05 ml) was administered intranasally to each mouse, anaesthetized with a mixture of ethyl ether and chloroform.
# The compounds of formula I and the clarithromycin reference compounds were administered orally in a single dose, as a 0.5% suspension Methocel® 1 hour after the infection and 24 hours before the infection.
# Observation of the death of the mice was continued for 7 days after the infection.
# The PD50, expressed as μmol/kg, was calculated by means of probit analysis.
"MIC (S. aureus 929; Staphylococcus aureus, 929)","MIC (S. aureus 77; Staphylococcus aureus, 77)","MIC (S. specie 916; Staphylococcus, 916)","MIC (S. epidermis 60; Staphylococcus, 60)",MIC (S. coag. Neg. 845; Staphylococcus),MIC (S. pneumoniae 1047),MIC (S. pneumoniae 1035),MIC (S. pneumoniae 1051),Structure (SMILES),"MIC (S. haemolyticus 161; Staphylococcus haemolyticus, 161)",PD50 1 hour after infection [1],PD50 24 hours before infection [1],MIC S. aureus 929 (S. aureus 929),MIC S. aureus 77 (S. aureus 77),MIC S. specie 916* (S. specie 916),MIC S. epidermis 60* (S. epidermis 60),MIC S. coag. Neg. 845 (S. coag. Neg. 845),MIC S. haemolyticus 161 (S. haemolyticus 161)
> 64 µg/mL,> 64 µg/mL,> 64 µg/mL,> 64 µg/mL,> 64 µg/mL,2 µg/mL,4 µg/mL,16 µg/mL,"CC[C@H]1OC(=O)[C@H](C)[C@@H](O[C@H]2C[C@@](C)(OC)[C@@H](O)[C@H](C)O2)[C@H](C)[C@@H](O[C@@H]2O[C@H](C)C[C@H](N(C)C)[C@H]2O)[C@](C)(O)C[C@@H](C)CN(C)[C@H](C)[C@@H](O)[C@]1(C)O [Azithromycin, reference compound]",> 64 µg/mL,–,–,–,–,–,–,–,–
–,–,–,–,–,–,–,–,"CC[C@H]1OC(=O)[C@H](C)[C@@H](O[C@H]2C[C@@](C)(OC)[C@@H](O)[C@H](C)O2)[C@H](C)[C@@H](O[C@@H]2O[C@H](C)C[C@H](N(C)C)[C@H]2O)[C@](C)(OC)C[C@@H](C)C(=O)[C@H](C)[C@@H](O)[C@]1(C)O [Clarithromycin, reference compound]",–,7.38 µmol/kg,>85.6 µmol/kg,–,–,–,–,–,–
–,–,–,–,–,–,–,–,"CC[C@H]1OC(=O)[C@H](C)[C@@H](O[C@H]2C[C@@](C)(OC)[C@@H](O)[C@H](C)O2)[C@H](C)[C@@H](O[C@@H]2O[C@H](C)C[C@H](N(C)C)[C@H]2O)[C@](C)(O)C[C@@H](C)/C(=N\OCCNCCCCCCNCc2nc(-c3nccs3)cs2)[C@H](C)[C@@H](O)[C@]1(C)O [Compound 1, erythromycin A (E)-9-[O-[2-[6-[([2,4′]bithiazole-2′-ylmethyl)amino]hexylamino]ethyl]oxime]]",–,22.9 µmol/kg,15.5 µmol/kg,>64 µg/mL,>64 µg/mL,2 µg/mL,2 µg/mL,>64 µg/mL,>64 µg/mL
–,–,–,–,–,–,–,–,CC[C@H]1OC(=O)[C@H](C)[C@@H](O[C@H]2C[C@@](C)(OC)[C@@H](O)[C@H](C)O2)[C@H](C)[C@@H](O[C@@H]2O[C@H](C)C[C@H](N(C)C)[C@H]2O)[C@](C)(O)C[C@@H](C)/C(=N\OCCN(C)CCCCCCNCc2nc(-c3nccs3)cs2)[C@H](C)[C@@H](O)[C@]1(C)O [Compound 2],–,–,–,>64 µg/mL,>64 µg/mL,4 µg/mL,2 µg/mL,>64 µg/mL,>64 µg/mL
–,–,–,–,–,–,–,–,"CC[C@H]1OC(=O)[C@H](C)[C@@H](O[C@H]2C[C@@](C)(OC)[C@@H](O)[C@H](C)O2)[C@H](C)[C@@H](O[C@@H]2O[C@H](C)C[C@H](N(C)C)[C@H]2O)[C@](C)(O)C[C@@H](C)/C(=N\OCCNCCCCCCNCc2csc(-c3cccs3)n2)[C@H](C)[C@@H](O)[C@]1(C)O [Compound 4, Erythromycin A (E)-9-[O-[2-[6-[(2-thiophen-2-ylthiazol-4-ylmethyl)amino]hexylamino]ethyl]oxime]]",–,11.4 µmol/kg,14.3 µmol/kg,16 µg/mL,64 µg/mL,8 µg/mL,0.5 µg/mL,16 µg/mL,16 µg/mL
